In patent US9884063B2, “Amido-substituted azole compounds” (Bayer Pharma Aktiengesellschaft, priority 2014, dated 2018):

Columns and labels:
[1] = test system: HEK293 FOP control reporter cell line; experiment: HEK293 FOP Assay (FOP control vector luciferase reporter); assay type: cell-based; settings: Homo sapiens; HEK293 FOP control reporter cell line, 16 hours incubation, compound dilution series 50 μM to 15 nM
Procedure, shortened: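 Compound series 50 μM to 15 nM, 3.16-fold steps, were diluted in CAFTY buffer (pH 7.4, 2 mM Ca2+, 0.01% BSA) and tested alongside the TOP reporter line. Human Wnt-3a was added at 2500–5 ng/ml in two-fold steps. The control HEK293 line stably holds an FOP vector whose TCF elements are randomized and non-functional.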

[2] = target: T1, TNKS1 (Homo sapiens, UniProt O95271); experiment: Modified TNKS1 Assay 2 (auto-parsylation, [3H]-NAD+ SPA); assay type: biochemical; settings: 6 nM TNKS1, 96 well
T1 sequence (O95271 1-1327): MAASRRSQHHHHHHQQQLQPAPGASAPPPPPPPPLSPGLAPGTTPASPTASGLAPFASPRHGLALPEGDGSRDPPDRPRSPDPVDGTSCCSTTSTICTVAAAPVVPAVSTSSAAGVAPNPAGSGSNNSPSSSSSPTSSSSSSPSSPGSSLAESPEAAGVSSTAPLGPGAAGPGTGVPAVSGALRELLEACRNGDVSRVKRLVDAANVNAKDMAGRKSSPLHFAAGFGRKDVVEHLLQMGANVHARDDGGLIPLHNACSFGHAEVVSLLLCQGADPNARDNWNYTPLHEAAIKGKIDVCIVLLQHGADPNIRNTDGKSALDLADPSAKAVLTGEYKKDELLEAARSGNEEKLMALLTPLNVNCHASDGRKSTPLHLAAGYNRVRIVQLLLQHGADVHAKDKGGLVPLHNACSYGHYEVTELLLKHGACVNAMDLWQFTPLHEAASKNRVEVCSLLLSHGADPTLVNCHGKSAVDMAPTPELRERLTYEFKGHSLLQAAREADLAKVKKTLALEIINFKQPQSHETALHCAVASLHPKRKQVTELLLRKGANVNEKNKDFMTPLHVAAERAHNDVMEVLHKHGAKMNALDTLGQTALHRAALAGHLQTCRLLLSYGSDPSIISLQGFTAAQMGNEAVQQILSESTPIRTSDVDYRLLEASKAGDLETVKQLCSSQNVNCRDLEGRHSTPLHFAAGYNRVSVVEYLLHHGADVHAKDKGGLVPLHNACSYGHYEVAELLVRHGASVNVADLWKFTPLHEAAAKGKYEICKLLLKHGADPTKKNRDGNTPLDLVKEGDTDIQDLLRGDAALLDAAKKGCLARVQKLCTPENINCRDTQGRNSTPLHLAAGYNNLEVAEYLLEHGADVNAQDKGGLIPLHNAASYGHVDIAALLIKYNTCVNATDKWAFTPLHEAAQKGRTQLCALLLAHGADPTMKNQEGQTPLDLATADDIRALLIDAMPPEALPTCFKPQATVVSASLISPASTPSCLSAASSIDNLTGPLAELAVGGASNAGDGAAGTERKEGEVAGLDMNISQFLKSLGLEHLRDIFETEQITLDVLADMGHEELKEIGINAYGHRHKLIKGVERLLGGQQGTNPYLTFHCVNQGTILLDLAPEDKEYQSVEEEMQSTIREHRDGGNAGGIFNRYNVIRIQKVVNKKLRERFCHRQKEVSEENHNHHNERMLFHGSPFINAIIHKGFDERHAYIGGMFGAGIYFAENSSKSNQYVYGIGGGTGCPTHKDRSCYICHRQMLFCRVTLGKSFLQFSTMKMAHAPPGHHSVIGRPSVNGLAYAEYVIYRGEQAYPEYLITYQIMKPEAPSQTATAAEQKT

| Structure (SMILES) | IC50 [1] [nM] | IC50 [2] [nM] |
| --- | --- | --- |
| CNC(=O)c1nc[nH]c1C(=O)Nc1ccc(NC(=O)c2ccc(Cl)cc2F)cc1 [Example 333, N^5-{4-[(4-chloro-2-fluorobenzoyl)amino]phenyl}-N^4-methyl-1H-imidazole-4,5-dicarboxamide] | 40000 | 960 |
| O=C(Nc1ccc(NC(=O)c2nc[nH]c2C(=O)N[C@H]2CCNC2)cc1)c1ccc(F)cc1Cl [Example 281, N^4-{4-[(2-chloro-4-fluorobenzoyl)amino]phenyl}-N^5-[(3S)-pyrrolidin-3-yl]-1H-imidazole-4,5-dicarboxamide] |  | 60 |
| CNC(=O)c1nc[nH]c1C(=O)Nc1ccc(NC(=O)c2ccc(S(C)(=O)=O)cc2Cl)cc1 [Example 55, N^5-(4-{[2-chloro-4-(methylsulfonyl)benzoyl]amino}phenyl)-N^4-methyl-1H-imidazole-4,5-dicarboxamide] |  | 120 |
| O=C(Nc1ccc(NC(=O)c2nc[nH]c2C(=O)NCC2CCOCC2)cc1)c1ccc(F)cc1Cl [Example 397, N^5-{4-[(2-chloro-4-fluorobenzoyl)amino]phenyl}-N^4-(tetrahydro-2H-pyran-4-ylmethyl)-1H-imidazole-4,5-dicarboxamide] |  | 240 |
| CNC(=O)c1nc[nH]c1C(=O)Nc1ccc(NC(=O)c2ccc(F)cc2I)cc1 [Example 61, N^5-{4-[(4-fluoro-2-iodobenzoyl)amino]phenyl}-N^4-methyl-1H-imidazole-4,5-dicarboxamide] |  | 30 |
| Cc1cc(NC(=O)c2[nH]cnc2C(=O)NCCN(C)C)ccc1NC(=O)c1ccc(F)cc1Cl [Example 84, N^5-{4-[(2-chloro-4-fluorobenzoyl)amino]-3-methylphenyl}-N^4-[2-(dimethylamino)ethyl]-1H-imidazole-4,5-dicarboxamide] |  | 170 |
| CN(C)CCNC(=O)c1nc[nH]c1C(=O)Nc1ccc(NC(=O)c2ccc(F)cc2)c(F)c1 [Example 77, N^4-[2-(dimethylamino)ethyl]-N^5-{3-fluoro-4-[(4-fluorobenzoyl)amino]phenyl}-1H-imidazole-4,5-dicarboxamide] |  | 990 |
| O=C(Nc1ccc(NC(=O)c2nc[nH]c2C(=O)NCCN2CCCCC2)cc1OC(F)(F)F)c1ccc(F)cc1Cl [Example 293, N^4-{4-[(2-chloro-4-fluorobenzoyl)amino]-3-(trifluoromethoxy)phenyl}-N^5-[2-(piperidin-1-yl)ethyl]-1H-imidazole-4,5-dicarboxamide] |  | 80 |
| CNC(=O)c1nc[nH]c1C(=O)Nc1ccc(NC(=O)c2cccc(Cl)n2)cc1 [Example 353, N^5-(4-{[(6-chloropyridin-2-yl)carbonyl]amino}phenyl)-N^4-methyl-1H-imidazole-4,5-dicarboxamide] |  | > 10000 |
| CNC(=O)c1nc[nH]c1C(=O)Nc1ccc(NC(=O)c2c(C)cccc2Cl)cc1 [Example 343, N^5-{4-[(2-chloro-6-methylbenzoyl)amino]phenyl}-N^4-methyl-1H-imidazole-4,5-dicarboxamide] |  | 2000 |
| NCCNC(=O)c1[nH]cnc1C(=O)Nc1ccc(NC(=O)c2ccc(F)cc2Cl)cc1 [Example 290, N^5-(2-aminoethyl)-N^4-{4-[(2-chloro-4-fluorobenzoyl)amino]phenyl}-1H-imidazole-4,5-dicarboxamide] |  | 40 |
| CNC(=O)c1nc[nH]c1C(=O)Nc1ccc(NC(=O)c2cc(F)c(F)cc2C)cc1 [Example 377, N^5-{4-[(4,5-difluoro-2-methylbenzoyl)amino]phenyl}-N^4-methyl-1H-imidazole-4,5-dicarboxamide] |  | 470 |
| CNC(=O)c1nc[nH]c1C(=O)Nc1ccc(NC(=O)c2cc(C(F)(F)F)ccc2Cl)cc1 [Example 352, N^5-(4-{[2-chloro-5-(trifluoromethyl)benzoyl]amino}phenyl)-N^4-methyl-1H-imidazole-4,5-dicarboxamide] |  | 580 |
| Cc1cc(NC(=O)c2[nH]cnc2C(=O)NCCN2CCCCC2)ccc1NC(=O)c1ccc(F)cc1Cl [Example 85, N^5-{4-[(2-chloro-4-fluorobenzoyl)amino]-3-methylphenyl}-N^4-[2-(piperidin-1-yl)ethyl]-1H-imidazole-4,5-dicarboxamide] |  | 9 |
| O=C(Nc1ccc(NC(=O)c2[nH]cnc2C(=O)NCCN2CCCCC2)cc1F)c1ccc(F)cc1 [Example 78, N^5-{3-fluoro-4-[(4-fluorobenzoyl)amino]phenyl}-N^4-[2-(piperidin-1-yl)ethyl]-1H-imidazole-4,5-dicarboxamide] |  | > 10000 |
| CCNC(=O)c1nc[nH]c1C(=O)Nc1ccc(NC(=O)c2cccc(OC)c2Cl)cc1 [Example 260, N^5-{4-[(2-chloro-3-methoxybenzoyl)amino]phenyl}-N^4-ethyl-1H-imidazole-4,5-dicarboxamide] |  | 3000 |
| CNC(=O)c1nc[nH]c1C(=O)Nc1ccc(NC(=O)c2c(F)ccc(F)c2Cl)cc1 [Example 374, N^5-{4-[(2-chloro-3,6-difluorobenzoyl)amino]phenyl}-N^4-methyl-1H-imidazole-4,5-dicarboxamide] |  | 1600 |
| CCN(CC)CCCCNC(=O)c1nc[nH]c1C(=O)Nc1ccc(NC(=O)c2ccc(F)cc2Cl)cc1 [Example 393, N^5-{4-[(2-chloro-4-fluorobenzoyl)amino]phenyl}-N^4-[4-(diethylamino)butyl]-1H-imidazole-4,5-dicarboxamide] |  | 300 |
| CNC(=O)c1nc[nH]c1C(=O)Nc1ccc(NC(=O)c2ccc(F)c(Cl)c2F)cc1 [Example 359, N^5-{4-[(3-chloro-2,4-difluorobenzoyl)amino]phenyl}-N^4-methyl-1H-imidazole-4,5-dicarboxamide] |  | > 10000 |
| O=C(Nc1ccc(NC(=O)c2[nH]cnc2C(=O)NCCC2CC2)cc1)c1ccc(F)cc1Cl [Example 43, N^5-{4-[(2-chloro-4-fluorobenzoyl)amino]phenyl}-N^4-(2-cyclopropylethyl)-1H-imidazole-4,5-dicarboxamide] |  | 9200 |
| O=C(Nc1ccc(NC(=O)c2[nH]cnc2C(=O)NCCc2ccccc2)cc1)c1ccc(F)cc1Cl [Example 384, N^5-{4-[(2-chloro-4-fluorobenzoyl)amino]phenyl}-N^4-(2-phenylethyl)-1H-imidazole-4,5-dicarboxamide] |  | 1500 |
| O=C(Nc1ccc(NC(=O)c2nc[nH]c2C(=O)NCCN2CCCCC2)cc1)c1ccccc1Cl [Example 381, N^4-{4-[(2-chlorobenzoyl)amino]phenyl}-N^5-[2-(piperidin-1-yl)ethyl]-1H-imidazole-4,5-dicarboxamide] |  | 20 |
| CNC(=O)c1nc[nH]c1C(=O)Nc1ccc(NC(=O)c2ncccc2C)cc1 [Example 356, N^4-methyl-N^5-(4-{[(3-methylpyridin-2-yl)carbonyl]amino}phenyl)-1H-imidazole-4,5-dicarboxamide] |  | 2000 |
| O=C(Nc1ccc(NC(=O)c2[nH]cnc2C(=O)NCCc2cccnc2)cc1)c1ccc(F)cc1Cl [Example 405, N^5-{4-[(2-chloro-4-fluorobenzoyl)amino]phenyl}-N^4-[2-(pyridin-3-yl)ethyl]-1H-imidazole-4,5-dicarboxamide] |  | 100 |
| CNC(=O)c1nc[nH]c1C(=O)Nc1ccc(NC(=O)c2cc(C)ccn2)cc1 [Example 363, N^4-methyl-N^5-(4-{[(4-methylpyridin-2-yl)carbonyl]amino}phenyl)-1H-imidazole-4,5-dicarboxamide] |  | > 10000 |
| CNC(=O)c1nc[nH]c1C(=O)Nc1ccc(NC(=O)c2ccccc2Cl)c(F)c1 [Example 80, N^5-{4-[(2-chlorobenzoyl)amino]-3-fluorophenyl}-N^4-methyl-1H-imidazole-4,5-dicarboxamide] |  | 690 |
| O=C(Nc1ccc(NC(=O)c2[nH]cnc2C(=O)NCCc2ccncc2)cc1)c1ccc(F)cc1Cl [Example 394, N^5-{4-[(2-chloro-4-fluorobenzoyl)amino]phenyl}-N^4-[2-(pyridin-4-yl)ethyl]-1H-imidazole-4,5-dicarboxamide] |  | 50 |
